Converted amounts (≈) assume the structure as drawn.
Legend:
Format in all cases: functional
[1] = tested on: Staphylococcus aureus; test: Antibacterial activity against Staphylococcus aureus
[2] = tested on: Staphylococcus epidermidis; test: Antibacterial activity against Staphylococcus epidermidis after 18 hrs by agar dilution assay
[3] = tested on: Staphylococcus aureus; test: Antibacterial activity against Staphylococcus aureus ATCC 6538P after 18 hrs by agar dilution assay
[4] = tested on: Staphylococcus epidermidis; test: Potency index, ratio of NRFX MIC to compound MIC for Staphylococcus epidermidis
[5] = tested on: Staphylococcus epidermidis; test: Potency index, ratio of enoxacin MIC to compound MIC for Staphylococcus epidermidis
[6] = tested on: Staphylococcus aureus; test: Potency index, ratio of CPFX MIC to compound MIC for Staphylococcus aureus ATCC 6538P
[7] = tested on: Staphylococcus aureus; test: Potency index, ratio of enoxacin MIC to compound MIC for Staphylococcus aureus ATCC 6538P
[8] = tested on: Staphylococcus aureus; test: Potency index, ratio of NRFX MIC to compound MIC for Staphylococcus aureus ATCC 6538P
[9] = tested on: Staphylococcus epidermidis; test: Potency index, ratio of CPFX MIC to compound MIC for Staphylococcus epidermidis
[10] = Selectivity ratio of MIC for Micrococcus luteus ATCC 9341 to MIC for methicillin-resistant Staphylococcus aureus
[11] = tested on: Staphylococcus aureus; test: Selectivity ratio of MIC for Staphylococcus aureus 209P JC1 to MIC for methicillin-resistant Staphylococcus aureus
[12] = tested on: Staphylococcus aureus; test: Potency index, ratio of GTFX MIC to compound MIC for Staphylococcus aureus
[13] = tested on: Staphylococcus aureus; test: Potency index, ratio of CPFX MIC to compound MIC for Staphylococcus aureus
[14] = tested on: Staphylococcus aureus; test: Potency index, ratio of NRFX MIC to compound MIC for Staphylococcus aureus
[15] = tested on: Staphylococcus aureus; test: Potency index, ratio of LMFX MIC to compound MIC for Staphylococcus aureus
[16] = tested on: Staphylococcus aureus; test: Antibacterial activity against vancomycin-resistant Staphylococcus aureus GISA 992
[17] = tested on: Staphylococcus aureus; test: Antibacterial activity against methicillin-resistant Staphylococcus aureus 494
[18] = tested on: Staphylococcus aureus; test: Antibacterial activity against Staphylococcus aureus 1199
[19] = tested on: Staphylococcus aureus; test: Antibacterial activity against Staphylococcus aureus 1199B
[20] = tested on: Staphylococcus aureus; test: Antibacterial activity against Staphylococcus aureus 1199-3
[21] = tested on: Staphylococcus aureus; test: Potency index, ratio of CPFX MIC to compound MIC for Staphylococcus aureus 1199B
[22] = tested on: Staphylococcus aureus; test: Potency index, ratio of CPFX MIC to compound MIC for Staphylococcus aureus 1199
[23] = tested on: Staphylococcus aureus; test: Potency index, ratio of CPFX MIC to compound MIC for Staphylococcus aureus 1199-3

With COc1c(N2CCNC(C)C2)c(F)cc2c(=O)c(C(=O)O)cn(C3CC3)c12 (stereo unspecified) [GATIFLOXACIN] the MIC [1] was 0.02 to 39.06 µg/mL.

For CCn1cc(C(=O)O)c(=O)c2cc(F)c(N3CCNC(C)C3)c(F)c21 (stereo unspecified) [LOMEFLOXACIN], the MIC [1] was 0.02 to 39.06 µg/mL.

In the case of CCn1cc(C(=O)O)c(=O)c2cc(F)c(N3CCNCC3)cc21 [NORFLOXACIN], the MIC [2] is reported as 0.25 to 1 µg/mL (≈ 0.783 to 3.13 µM), the MIC [3] is reported as 0.25 to 1 µg/mL (≈ 0.783 to 3.13 µM) and the MIC [1] is reported as 0.02 to 39.06 µg/mL.

For Cn1c([N+](=O)[O-])cnc1-c1nnc(N2CCN(c3cc4c(cc3F)c(=O)c(C(=O)O)cn4C3CC3)CC2)s1, the MIC [2] was 0.008 µg/mL (≈ 0.0148 µM), the Ratio [4] was 32 - 128 and the Ratio [5] was 32 - 128. The MIC [3] was 0.008 µg/mL (≈ 0.0148 µM), the Ratio [6] was 32 - 128 and the Ratio [7] was 32 - 128. For the same compound, the Ratio [8] was 32 - 128 and the Ratio [9] was 32 - 128.

In the case of C=c1sc2c(C(=O)O)c(=O)c3cc(F)c(-c4ccc(N)cc4)cc3n12, the Ratio [10] is reported as greater than 16 and the Ratio [11] is reported as “>=16”.

For CCn1cc(C(=O)O)c(=O)c2cc(F)c(N3CCN(CN4C(=O)/C(=N\c5ncc(Cc6cc(OC)c(OC)c(OC)c6)c(N)n5)c5cc(F)ccc54)C(C)C3)c(F)c21 (stereo unspecified), the Ratio [12] was 2 - 4111, the Ratio [13] was 2 - 4111 and the Ratio [14] was 2 - 4111. The MIC ([1]; Staphylococcus aureus, read-out: MIC) was 0.0095 µg/mL (≈ 0.0119 µM) and the Ratio [15] was 2 - 4111.

O=C(O)c1cn(C2CC2)c2cc(N3CCNCC3)c(F)cc2c1=O [CIPROFLOXACIN] gave an MIC [16] of 0.125 to 32 µg/mL (≈ 0.377 to 96.6 µM), an MIC [2] of 0.25 to 1 µg/mL (≈ 0.754 to 3.02 µM) and an MIC [17] of 0.125 to 32 µg/mL (≈ 0.377 to 96.6 µM). The MIC [3] was 0.25 to 1 µg/mL (≈ 0.754 to 3.02 µM), the MIC [18] was 0.125 to 32 µg/mL (≈ 0.377 to 96.6 µM) and the MIC [19] was 0.125 to 32 µg/mL (≈ 0.377 to 96.6 µM). The MIC [1] was 0.02 to 39.06 µg/mL and the MIC [20] was 0.125 to 32 µg/mL (≈ 0.377 to 96.6 µM).

Work on CCn1cc(C(=O)O)c(=O)c2cnc(N3CCN(Cc4ccc(CN5CCN(c6cc7c(cc6F)c(=O)c(C(=O)O)cn7C6CC6)CC5)cc4)CC3)nc21 yielded a Ratio [21] greater than 4, a Ratio [22] greater than 4 and a Ratio [23] greater than 4.

Reference: ChEMBL document CHEMBL4251589, “4-Quinolone derivatives and their activities against Gram positive pathogens” (2018)
